From patent publication US10030012B2, “Piperidin-1-yl and azepin-1-yl carboxylates as muscarinic M4 receptor agonists” (Heptares Therapeutics Limited, priority 2013, dated 2018)

Assays:
human M4 receptor = human M4 receptor (Homo sapiens (Human), UniProt P08173); experiment: In vitro M4 functional assay (intracellular calcium, FLiPR Tetra); format: cell-based; conditions: for EC50: CHOK1 cells stably expressing human M4 receptor and Gα16, calcium flux; for Emax: relative efficacy to an EC100 concentration of acetylcholine, read-out: M4 % RE
Procedure: (§1) In Vitro M4 &M2 Functional Assay
(§2) The functional activity of compounds at the M4 and M2 receptors was determined by measuring changes in the level of intracellular calcium ions caused by signalling cascades mediated by the receptor. Intracellular Calcium levels were measured using a calcium sensitive fluorescent dye, calcium 5 (Molecular Devices) The changes in fluorescence were monitored by a fluorescent imager, FLiPR Tetra (Molecular devices). Increases in intracellular calcium were readily detected upon activation of both receptors by the muscarinic receptor agonist Acetylcholine.
(§3) CHOK1 cells stably expressing human M4 or M2 receptor and co-expressing the accessory g-protein Gα16 were routinely grown as monolayers in Hams-F12 medium (Invitrogen) supplemented with 10% foetal bovine serum (FBS) (Hyclone), 500 ug/mL Geneticin and 250 ug/mL zeocin (both invitrogen) in 5% CO2 at 37° C. Once confluent is cells cryopreserved by freezing at −186° C. in freezing solution (90% FBS 10% DMSO) (Sigma-Aldrich Co.). Twenty-four hours prior to testing cells resuscitated and freezing media removed via centrifugation, cells then seeded in a black walled clear bottom 384 well plates (Corning) at a density of 15,000 cells/well in Hams F12 media supplemented with 10% FBS. On the day of assay, growth media was removed and replaced with 63 μl of Calcium 5 dye solution (Molecular Devices) in assay buffer (HBSS, 20 mM HEPES, 0.1% BSA, 1 mM Probenecid pH7.4 (Sigma-Aldrich Co.)) per well (each vial of Calcium 5 resuspended in 27 mL of assay buffer). Cells were then incubated for 45 minutes at 37° C., 5% CO2. Compound was serially diluted in DMSO (log/half log) before being diluted 1:20 with assay buffer. 7 μl of compound diluted in assay buffer was then added to cells on FLiPR tetra and fluorescence intensity measured for 5 minutes. EC50 values for compounds were determined from ten point half log scale dose-response studies and represent the concentration of compound required to […] maximal response. Curves were generated using the average of duplicate wells for each data point and analyzed using non-linear regression of four parameter dose response. Percentage Relative efficacy (RE) to an EC100 concentration of acetylcholine was reported for all compounds. The results are set out in Table 3 below in which the term “No Response” means that there was no significant response of calcium flux in the assay indicative of agonism.

human M2 receptor = human M2 receptor (Homo sapiens (Human), UniProt P08172); experiment: In vitro M2 functional assay (intracellular calcium, FLiPR Tetra); format: cell-based; conditions: for M2 EC50 / EC50: CHOK1 cells stably expressing human M2 receptor and Gα16, calcium flux, No Response = no significant response of calcium flux indicative of agonism; for M2 % RE: relative efficacy to an EC100 concentration of acetylcholine; for activation at 10 µM: response at 10 μM compound, relative to an EC100 concentration of acetylcholine, read-out: M2 % RE @ 10 μM
Procedure: as §1, §2, §3

human M2 receptor, sequence (P08172 whole entry): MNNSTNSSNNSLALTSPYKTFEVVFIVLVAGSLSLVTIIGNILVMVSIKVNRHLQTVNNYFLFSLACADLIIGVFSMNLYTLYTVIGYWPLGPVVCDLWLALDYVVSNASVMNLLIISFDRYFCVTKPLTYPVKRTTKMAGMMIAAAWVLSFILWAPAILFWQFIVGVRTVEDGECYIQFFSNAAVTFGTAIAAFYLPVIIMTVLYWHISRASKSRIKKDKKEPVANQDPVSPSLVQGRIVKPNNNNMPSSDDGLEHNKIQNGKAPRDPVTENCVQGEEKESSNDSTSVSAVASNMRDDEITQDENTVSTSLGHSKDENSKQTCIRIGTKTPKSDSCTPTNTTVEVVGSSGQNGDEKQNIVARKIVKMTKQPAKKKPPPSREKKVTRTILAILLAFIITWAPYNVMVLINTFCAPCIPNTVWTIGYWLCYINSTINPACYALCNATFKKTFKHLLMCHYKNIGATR
human M4 receptor, sequence (P08173 whole entry): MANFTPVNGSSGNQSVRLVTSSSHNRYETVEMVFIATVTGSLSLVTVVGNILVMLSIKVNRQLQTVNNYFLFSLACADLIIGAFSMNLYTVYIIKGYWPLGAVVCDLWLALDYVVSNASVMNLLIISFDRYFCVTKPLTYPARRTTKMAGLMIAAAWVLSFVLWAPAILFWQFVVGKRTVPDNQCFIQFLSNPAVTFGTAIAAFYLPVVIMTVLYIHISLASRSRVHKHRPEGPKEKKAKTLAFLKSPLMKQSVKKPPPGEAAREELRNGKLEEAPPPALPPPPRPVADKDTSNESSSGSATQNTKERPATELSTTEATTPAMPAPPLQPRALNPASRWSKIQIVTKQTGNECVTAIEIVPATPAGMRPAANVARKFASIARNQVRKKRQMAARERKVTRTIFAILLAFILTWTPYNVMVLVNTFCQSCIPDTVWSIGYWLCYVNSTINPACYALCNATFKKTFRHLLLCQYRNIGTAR

EC50 (human M4 receptor) | Emax (human M4 receptor) | M2 EC50 (human M2 receptor) | EC50 (human M2 receptor) | M2 % RE (human M2 receptor) | activation at 10 µM (human M2 receptor) | Compound
320 nM | 55% | No Response |  |  |  | CCOC(=O)N1CCCC(N2CCC(n3nccc3C#N)CC2)CC1 (stereo not shown) [Example 27, Ethyl 4-[4-(5-cyano-1H-pyrazol-1-yl)piperidin-1-yl]azepane-1-carboxylate]
1480 nM | 59% | No Response |  |  |  | CCOC(=O)N1CCCC(N2CCC(n3nccc3CNC(C)=O)CC2)CC1 (stereo not shown) [Example 28, Ethyl 4-{4-[5-(acetamidomethyl)-1H-pyrazol-1-yl]piperidin-1-yl}azepane-1-carboxylate]
1830 nM | 29% | No Response |  |  |  | CCOC(=O)N1CCC(CN2CC(n3cccn3)C2)CC1 [Example 29, Ethyl 4-{[3-(1H-pyrazol-1-yl)azetidin-1-yl]methyl}piperidine-1-carboxylate]
1660 nM | 27% | No Response |  |  |  | CCOC(=O)N1CCCC(N2CCC(c3ccncc3)CC2)CC1 (stereo not shown) [Example 30, Ethyl 4-[4-(pyridin-4-yl)piperidin-1-yl]azepane-1-carboxylate]
2260 nM | 30% | No Response |  |  |  | CCOC(=O)N1CCC(N2CCC(c3ccncc3)CC2)CC1 [Example 31, Ethyl 4-[4-(pyridin-4-yl)piperidin-1-yl]piperidine-1-carboxylate]
220 nM | 73% | No Response |  |  |  | CCOC(=O)N1CCC(N2CCC(c3cccc(OC)n3)CC2)CC1 [Example 32, Ethyl 4-[4-(6-methoxypyridin-2-yl)piperidin-1-yl]piperidine-1-carboxylate]
180 nM | 61% | No Response |  |  |  | CCOC(=O)N1CCCC(N2CCC(c3cccc(OC)n3)CC2)CC1 (stereo not shown) [Example 33, Ethyl 4-[4-(6-methoxypyridin-2-yl)piperidin-1-yl]azepane-1-carboxylate]
90 nM | 90% | No Response |  |  |  | CCOC(=O)N1CCC(N2CCC(c3cccnc3OC)CC2)CC1 [Example 34, Ethyl 4-[4-(2-methoxypyridin-3-yl)piperidin-1-yl]piperidine-1-carboxylate]
30 nM | 102% | No Response |  |  |  | CCOC(=O)N1CCCC(N2CCC(c3cccnc3OC)CC2)CC1 (stereo not shown) [Example 35, Ethyl 4-[4-(2-methoxypyridin-3-yl)piperidin-1-yl]azepane-1-carboxylate]
6730 nM | 25% | No Response |  |  |  | CCOC(=O)N1CCC(N2CCC(c3ccnc(C)n3)CC2)CC1 [Example 36, Ethyl 4-[4-(2-methylpyrimidin-4-yl)piperidin-1-yl]piperidine-1-carboxylate]
3340 nM | 39% | No Response |  |  |  | CCOC(=O)N1CCC(N2CCC(c3nc(OC)cc(OC)n3)CC2)CC1 [Example 37, Ethyl 4-[4-(4,6-dimethoxypyrimidin-2-yl)piperidin-1-yl]piperidine-1-carboxylate]
30 nM | 92% |  | 160 nM | 75% |  | CCOC(=O)N1CCCC(N2CCC(c3ncccc3OC)CC2)CC1 (stereo not shown) [Example 38, Ethyl 4-[4-(3-methoxypyridin-2-yl)piperidin-1-yl]azepane-1-carboxylate]
740 nM | 41% | No Response |  |  |  | CCOC(=O)N1CCCC(N2CCC(c3cccn(C)c3=O)CC2)CC1 (stereo not shown) [Example 39, Ethyl 4-[4-(1-methyl-2-oxo-1,2-dihydropyridin-3-yl)piperidin-1-yl]azepane-1-carboxylate]
140 nM | 62% | No Response |  |  |  | CCOC(=O)N1CCCC(N2CCC(c3nccnc3OC)CC2)CC1 (stereo not shown) [Example 40, Ethyl 4-[4-(3-methoxypyrazin-2-yl)piperidin-1-yl]azepane-1-carboxylate]
260 nM | 54% | No Response |  |  |  | CCOC(=O)N1CCCC(N2CCC(c3cccnc3C)CC2)CC1 (stereo not shown) [Example 41, Ethyl 4-[4-(2-methylpyridin-3-yl)piperidin-1-yl]azepane-1-carboxylate]
20 nM | 82% | No Response |  |  |  | CCOC(=O)N1CCCC(N2CCC(c3cc(C)cnc3OCC)CC2)CC1 (stereo not shown) [Example 42, Ethyl 4-[4-(2-ethoxy-5-methylpyridin-3-yl)piperidin-1-yl]azepane-1-carboxylate]
20 nM | 94% |  | 180 nM | 62% |  | CCOC(=O)N1CCCC(N2CCC(c3cc(C(F)(F)F)cnc3OC)CC2)CC1 (stereo not shown) [Example 43, Ethyl 4-{4-[2-methoxy-5-(trifluoromethyl)pyridin-3-yl]piperidin-1-yl}azepane-1-carboxylate]
370 nM | 52% | No Response |  |  |  | CCOC(=O)N1CCCC(N2CCC(c3ccncc3OC)CC2)CC1 (stereo not shown) [Example 44, Ethyl 4-[4-(3-methoxypyridin-4-yl)piperidin-1-yl]azepane-1-carboxylate]
460 nM | 25% | No Response |  |  |  | CCOC(=O)N1CCCC(N2CCC(c3cncc(OC)c3)CC2)CC1 (stereo not shown) [Example 45, Ethyl 4-[4-(5-methoxypyridin-3-yl)piperidin-1-yl]azepane-1-carboxylate]
1550 nM | 31% | No Response |  |  |  | CCOC(=O)N1CCC(N2CCC(c3cccnc3C)CC2)CC1 [Example 46, Ethyl 4-[4-(2-methylpyridin-3-yl)piperidin-1-yl]piperidine-1-carboxylate]
160 nM | 72% | No Response |  |  |  | CCOC(=O)N1CCC(N2CCC(c3cc(C)cnc3OCC)CC2)CC1 [Example 47, Ethyl 4-[4-(2-ethoxy-5-methylpyridin-3-yl)piperidin-1-yl]piperidine-1-carboxylate]
250 nM | 63% | No Response |  |  |  | CCOC(=O)N1CCCC(N2CCC(c3cnccc3OC)CC2)CC1 (stereo not shown) [Example 48, Ethyl 4-[4-(4-methoxypyridin-3-yl)piperidin-1-yl]azepane-1-carboxylate]
210 nM | 53% | No Response |  |  |  | CCOC(=O)N1CCCC(N2CCC(c3nccnc3N(C)C)CC2)CC1 (stereo not shown) [Example 49, Ethyl 4-{4-[3-(dimethylamino)pyrazin-2-yl]piperidin-1-yl}azepane-1-carboxylate]
460 nM | 50% | No Response |  |  |  | CCOC(=O)N1CCCC(N2CCC(c3cncc(N(C)C)n3)CC2)CC1 (stereo not shown) [Example 50, Ethyl 4-{4-[6-(dimethylamino)pyrazin-2-yl]piperidin-1-yl}azepane-1-carboxylate]
310 nM | 69% | No Response |  |  |  | CCOC(=O)N1CCCC(N2CCC(c3cncnc3OC)CC2)CC1 (stereo not shown) [Example 51, Ethyl 4-[4-(4-methoxypyrimidin-5-yl)piperidin-1-yl]azepane-1-carboxylate]
10 nM | 96% |  | > 10000 nM |  | 25% | CCOC(=O)N1CCCC(N2CCC(c3cccnc3OC(F)F)CC2)CC1 (stereo not shown) [Example 52, Ethyl 4-{4-[2-(difluoromethoxy)pyridin-3-yl]piperidin-1-yl}azepane-1-carboxylate]
60 nM | 80% | No Response |  |  |  | CCOC(=O)N1CCCC(N2CCC(c3cccnc3OCC)CC2)CC1 (stereo not shown) [Example 53, Ethyl 4-[4-(2-ethoxypyridin-3-yl)piperidin-1-yl]azepane-1-carboxylate]
20 nM | 94% | No Response |  |  |  | CCOC(=O)N1CCCC(N2CCC(c3cccnc3OCc3cc(C)no3)CC2)CC1 (stereo not shown) [Example 54, Ethyl 4-(4-{2-[(3-methyl-1,2-oxazol-5-yl)methoxy]pyridin-3-yl}piperidin-1-yl)azepane-1-carboxylate]
130 nM | 67% |  | > 10000 nM |  | 26% | CCOC(=O)N1CCCC(N2CCC(c3cccnc3OC(C)C)CC2)CC1 (stereo not shown) [Example 55, Ethyl 4-{4-[2-(propan-2-yloxy)pyridin-3-yl]piperidin-1-yl}azepane-1-carboxylate]
